This is an account of results in patent publication US10239832B2, “N-(1-hydroxy-3-(pyrrolidinyl)propan-2-yl)pyrrolidine-3-carboxamide derivatives as glucosylceramide synthase inhibitors” (BIOMARIN PHARMACEUTICAL INC., priority 2013, dated 2019).

SMILES strings stand for the structures.

For the assay, the target named is T1, GCS (Canis lupus familiaris, UniProt A0A8I3MXG6).
T1 construct: endogenous in cells; host or cells: MDCK (Madin-Darby canine kidney) cells, whole-cell lysate
T1 sequence (A0A8I3MXG6 1-394): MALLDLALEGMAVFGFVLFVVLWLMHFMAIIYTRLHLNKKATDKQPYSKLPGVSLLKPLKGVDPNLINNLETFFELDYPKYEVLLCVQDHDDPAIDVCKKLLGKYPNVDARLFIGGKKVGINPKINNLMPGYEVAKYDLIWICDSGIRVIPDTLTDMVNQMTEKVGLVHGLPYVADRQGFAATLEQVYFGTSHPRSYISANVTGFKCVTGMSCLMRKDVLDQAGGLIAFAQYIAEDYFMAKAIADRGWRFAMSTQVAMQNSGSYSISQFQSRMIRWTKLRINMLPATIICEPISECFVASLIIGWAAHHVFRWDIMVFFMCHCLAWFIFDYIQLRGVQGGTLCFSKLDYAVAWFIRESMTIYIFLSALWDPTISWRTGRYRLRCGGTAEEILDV
The assay is described as follows: GCS enzymatic assay (MDCK cell lysate, NBD-ceramide to glucosylceramide, LC/MS). The format is biochemical, canine. The following applies: Table 2, the table does not say which of the assays; for IC50: class symbols A, B, C, read-out: Data Range (IC50 values); for Data Range (% inhibition): class symbols D, E, F, NA (not active). A digest of the protocol:
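Dog MDCK cell lysate served as enzyme source, with NBD-ceramide turned over to glucosylceramide and 0.1% DMSO as mock control. The reaction was stopped with acetonitrile. Both lipids were quantified by LC/MS/MS in ESI positive MRM mode against a tolbutamide internal standard, giving IC50 or percent inhibition.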

In general, IC50 refers to the concentration that gives 50% inhibition. On to `O=C(N[C@H](CN1CCCC1)[C@H](O)c1ccc2c(c1)OC=CO2)[C@@H]1CCN(c2ccc(Cl)cc2)C1` [Compound 143, (R)-N-((1R,2R)-1-(benzo[b][1,4]dioxin-6-yl)-1-hydroxy-3-(pyrrolidin-1-yl)propan-2-yl)-1-(4-chlorophenyl)pyrrolidine-3-carboxamide], for which the IC50 fell in the range of 1 to 30 nM. With `O=C(N[C@H](CN1CCC1)[C@H](O)c1cc(F)c2c(c1)OCCO2)C1CCN(c2ccc3cc(Cl)ccc3c2)C1` (stereo partly drawn) [Compound 89F, N-((1R,2R)-3-(azetidin-1-yl)-1-(8-fluoro-2,3-dihydrobenzo[b][1,4]dioxin-6-yl)-1-hydroxypropan-2-yl)-1-(6-chloronaphthalen-2-yl)pyrrolidine-3-carboxamide], the IC50 was in the range of 1 to 30 nM. Consider `O=C(N[C@H](CN1CCC1)[C@H](O)c1ccc(OC2CC2)c(Cl)c1)[C@@H]1CCN(c2ccc3ccccc3c2)C1` [Compound 86, (R)-N-((1R,2R)-3-(azetidin-1-yl)-1-(3-chloro-4-cyclopropoxyphenyl)-1-hydroxypropan-2-yl)-1-(naphthalen-2-yl)pyrrolidine-3-carboxamide], for which the half-inhibitory concentration (IC50) lay in the range of 1 to 30 nM. On to `O=C(N[C@H](CN1CCCC1)[C@H](O)c1cc(F)c2c(c1)OCCO2)[C@@H]1CCN(c2ccc(Cl)c(-c3ccc(F)cc3)n2)C1` [Compound 144, (R)-1-(5-chloro-6-(4-fluorophenyl)pyridin-2-yl)-N((1R,2R)-1-(8-fluoro-2,3-dihydrobenzo[b][1,4]dioxin-6-yl)-1-hydroxy-3-(pyrrolidin-1-yl)propan-2-yl)pyrrolidine-3-carboxamide], for which the IC50 fell in the range of 1 to 30 nM. As for `O=C(N[C@H](CN1CCCC1)[C@H](O)c1ccc2c(c1)OCCO2)C1CCN(c2ccc(Cl)c(Cl)c2)C1` (stereo in doubt) [Compound 8, (R)-1-(3,4-dichlorophenyl)-N-((1R,2R)-1-(2,3-dihydrobenzo[b][1,4]dioxin-6-yl)-1-hydroxy-3-(pyrrolidin-1-yl)propan-2-yl)pyrrolidine-3-carboxamide], the “Data Range (% inhibition)” value is on record as “D (75-100%)”.

For the compound `O=C(N[C@H](CN1CCCC1)[C@H](O)c1cc(F)c2c(c1)OCCO2)[C@@H]1CCN(c2ccc3ccccc3n2)C1` [Compound 68, (R)-N-((1R,2R)-1-(8-fluoro-2,3-dihydrobenzo[b][1,4]dioxin-6-yl)-1-hydroxy-3-(pyrrolidin-1-yl)propan-2-yl)-1-(quinolin-2-yl)pyrrolidine-3-carboxamide], the IC50 fell in the range of 1 to 30 nM. As to `CC(C)Oc1ccc([C@@H](O)[C@@H](CN2CCCC2)NC(=O)[C@H]2CCN(c3ccc(Cl)cc3)C2)cc1Cl` [Compound 23B, (S)-N-((1R,2R)-1-(3-chloro-4-isopropoxyphenyl)-1-hydroxy-3-(pyrrolidin-1-yl)propan-2-yl)-1-(4-chlorophenyl)pyrrolidine-3-carboxamide], the “Data Range (% inhibition)” value is “F (1-49% (or less than 50%))”. `O=C(N[C@H](CN1CCCC1)[C@H](O)c1ccc(OC2CCOCC2)c(Cl)c1)[C@H]1CCN(c2ccc(Cl)cc2)C1` [Compound 45A, (S)-N-((1R,2R)-1-(3-chloro-4-((tetrahydro-2H-pyran-4-yl)oxy)phenyl)-1-hydroxy-3-(pyrrolidin-1-yl)propan-2-yl)-1-(4-chlorophenyl)pyrrolidine-3-carboxamide]: the “Data Range (% inhibition)” value was “F (1-49% (or less than 50%))”.

Consider `O=C(N[C@H](CN1CCCC1)[C@H](O)c1ccc2c(c1)OCCO2)C1CCN(c2ccc3ccccc3n2)C1` (stereo partly drawn) [Compound 72A, N-((1R,2R)-1-(2,3-dihydrobenzo[b][1,4]dioxin-6-yl)-1-hydroxy-3-(pyrrolidin-1-yl)propan-2-yl)-1-(quinolin-2-yl)pyrrolidine-3-carboxamide], for which the “Data Range (% inhibition)” value was “D (75-100%)”. Same read-out and setting: the result for `O=C(N[C@H](CN1CCCC1)[C@H](O)c1ccc2c(c1)OCCO2)C1CCN(C2CCCC2)C1` (stereo partly drawn) [Compound 11, 1-cyclopentyl-N-((1R,2R)-1-(2,3-dihydrobenzo[b][1,4]dioxin-6-yl)-1-hydroxy-3-(pyrrolidin-1-yl)propan-2-yl)pyrrolidine-3-carboxamide] reads “NA (not active—a negative value was generated for % inhibition)”; that for `O=C(N[C@H](CN1CCC1)[C@H](O)c1cc(F)c2c(c1)OCCO2)[C@H]1CCN(c2ccc3cc(Cl)ccc3c2)C1` [Compound 89G, (S)-N-((1R,2R)-3-(azetidin-1-yl)-1-(8-fluoro-2,3-dihydrobenzo[b][1,4]dioxin-6-yl)-1-hydroxypropan-2-yl)-1-(6-chloronaphthalen-2-yl)pyrrolidine-3-carboxamide], “E (50-74% (or less than 75%))”. For the compound `O=C(N[C@H](CN1CCCC1)[C@H](O)c1cc(F)c2c(c1)OCCO2)[C@@H]1CCN(c2cccc(Oc3ccc(Cl)cc3)n2)C1` [Compound 114, (R)-1-(6-(4-chlorophenoxy)pyridin-2-yl)-N((1R,2R)-1-(8-fluoro-2,3-dihydrobenzo[b][1,4]dioxin-6-yl)-1-hydroxy-3-(pyrrolidin-1-yl)propan-2-yl)pyrrolidine-3-carboxamide], the IC50 was 1 to 30 nM. As to `O=C(N[C@H](CN1CCCC1)[C@H](O)c1ccc2c(c1)OCCO2)[C@H]1CCN(c2ccc(Cl)cc2)C1` [Compound 1D, (S)-1-(4-chlorophenyl)-N-((1R,2R)-1-(2,3-dihydrobenzo[b][1,4]dioxin-6-yl)-1-hydroxy-3-(pyrrolidin-1-yl)propan-2-yl)pyrrolidine-3-carboxamide], the IC50 lay in the range of 30 to 100 nM. Consider `O=C(N[C@H](CN1CCCC1)[C@H](O)c1ccc(OC2CC2)c(Cl)c1)[C@@H]1CCN(c2cccc(-c3ccc(F)cc3)n2)C1` [Compound 126, (R)-N-((1R,2R)-1-(3-chloro-4-cyclopropoxyphenyl)-1-hydroxy-3-(pyrrolidin-1-yl)propan-2-yl)-1-(6-(4-fluorophenyl)pyridin-2-yl)pyrrolidine-3-carboxamide], for which the IC50 fell in the range of 1 to 30 nM.

As for `CC1(C)CCc2ccc(N3CCC(C(=O)N[C@H](CN4CCCC4)[C@H](O)c4ccc5c(c4)OCCO5)C3)cc2O1` (stereo partly drawn) [Compound 71E, N-((1R,2R)-1-(2,3-dihydrobenzo[b][1,4]dioxin-6-yl)-1-hydroxy-3-(pyrrolidin-1-yl)propan-2-yl)-1-(2,2-dimethylchroman-7-yl)pyrrolidine-3-carboxamide], the “Data Range (% inhibition)” value is “E (50-74% (or less than 75%))”.

`O=C(N[C@H](CN1CCCC1)[C@H](O)c1ccc2c(c1)OCCO2)[C@@H]1CCN(CCc2ccc(Cl)cc2)C1` [Compound 21, (R)-1-(4-chlorophenethyl)-N-((1R,2R)-1-(2,3-dihydrobenzo[b][1,4]dioxin-6-yl)-1-hydroxy-3-(pyrrolidin-1-yl)propan-2-yl)pyrrolidine-3-carboxamide]: the “Data Range (% inhibition)” value was “F (1-49% (or less than 50%))”.

For the compound `O=C(N[C@H](CN1CCCC1)[C@H](O)c1ccc(OC2CC2)c(Cl)c1)[C@H]1CCN(c2cccc(Oc3ccccn3)c2)C1` [Compound 75E, (S)-N-((1R,2R)-1-(3-chloro-4-cyclopropoxyphenyl)-1-hydroxy-3-(pyrrolidin-1-yl)propan-2-yl)-1-(3-(pyridin-2-yloxy)phenyl)pyrrolidine-3-carboxamide], the “Data Range (% inhibition)” value is on record as “D (75-100%)”. Consider `O=C(N[C@H](CN1CCCC1)[C@H](O)c1ccc2c(c1)OCCO2)[C@H]1CCN(CCc2ccc(Cl)cc2)C1` [Compound 21F, (S)-1-(4-chlorophenethyl)-N-((1R,2R)-1-(2,3-dihydrobenzo[b][1,4]dioxin-6-yl)-1-hydroxy-3-(pyrrolidin-1-yl)propan-2-yl)pyrrolidine-3-carboxamide], for which the “Data Range (% inhibition)” value is given as “F (1-49% (or less than 50%))”.

Turning to `O=C(N[C@H](CN1CCC1)[C@H](O)c1cc(F)c2c(c1)OCCO2)[C@@H]1CCN(c2ccc3cc(F)ccc3c2)C1` [Compound 47, (R)-N-((1R,2R)-3-(azetidin-1-yl)-1-(8-fluoro-2,3-dihydrobenzo[b][1,4]dioxin-6-yl)-1-hydroxypropan-2-yl)-1-(6-fluoronaphthalen-2-yl)pyrrolidine-3-carboxamide], the IC50 was 1 to 30 nM.

As for `CN1CCC(Oc2ccc([C@@H](O)[C@@H](CN3CCCC3)NC(=O)[C@@H]3CCN(c4ccc(Cl)cc4)C3)cc2Cl)CC1` [Compound 49, (R)-N-((1R,2R)-1-(3-chloro-4-((1-methylpiperidin-4-yl)oxy)phenyl)-1-hydroxy-3-(pyrrolidin-1-yl)propan-2-yl)-1-(4-chlorophenyl)pyrrolidine-3-carboxamide], the half-inhibitory concentration (IC50) fell in the range of 30 to 100 nM. With `N#Cc1ccc(N2CC[C@@H](C(=O)N[C@H](CN3CCCC3)[C@H](O)c3ccc(OC4CC4)c(Cl)c3)C2)cc1` [Compound 152, (R)-N-((1R,2R)-1-(3-chloro-4-cyclopropoxyphenyl)-1-hydroxy-3-(pyrrolidin-1-yl)propan-2-yl)-1-(4-cyanophenyl)pyrrolidine-3-carboxamide], the IC50 lay in the range of 100 to 1000 nM.

As for `O=C(N[C@H](CN1CCCC1)[C@H](O)c1cc(F)c2c(c1)OCCO2)[C@H]1CCN(c2ccc(Cl)cc2)C1` [Compound 2B, (S)-1-(4-chlorophenyl)-N-((1R,2R)-1-(8-fluoro-2,3-dihydrobenzo[b][1,4]dioxin-6-yl)-1-hydroxy-3-(pyrrolidin-1-yl)propan-2-yl)pyrrolidine-3-carboxamide], the “Data Range (% inhibition)” value is given as “F (1-49% (or less than 50%))”.
